Experimental findings from patent US20250101032A1, “EXATECAN DERIVATIVES AND ANTIBODY-DRUG CONJUGATES THEREOF” (priority 2021, published 2025) are described below.

Structures are written as SMILES. Converted amounts (≈) assume the structure as drawn.

One data set concerns NCI-H292. As to the kind of experiment: In vitro cytotoxicity assay (CellTiter-Glo), NCI-H292. Type of data set: cell-based, Human. The conditions noted are these: Homo sapiens, NCI-H292, 144 h, read-out: Cytotoxicity IC50. Here is the method:
(§1) Human tumor cell lines, SK-BR-3, NCI-H292, HT-29, MCF-7, NCI-N87, and FaDu were obtained from ATCC. NCI-H292, HT-29, MCF-7, and NCI-N87 cells were cultured in RPMI-1640 media (Gibco, Life Technologies) supplemented with 10% v/v heat inactivated FBS (Corning), FaDu cells were maintained in DMEM media (Gibco, Life Technologies) supplemented with 10% v/v heat inactivated FBS (Corning). SK-BR-3 cells were maintained in McCoys 5A medium (Gibco, Life Technologies) supplemented with 10% […] heat inactivated FBS (Corning) at 37° C. in a humidified incubator containing 5% CO2.
(§2) Lyophilized compounds were dissolved in 100% dry DMSO, aliquots frozen and stored at −80° C. Concentration and purity of compound stock solutions in DMSO were determined by RP-HPLC Agilent 1100 platform with 1200 DAD and SofTA ELSD detectors, and the Agilent 6150 MS system (UV/VIS, ELSD purity and MS compound identity confirmation). Shimadzu 3.0 mm×30 mm XR ODS 2.2 μm column was run at 50° C., 1.5 mL/min. Solvent A: 0.1% Formic acid in water, Solvent B: 0.08% Formic acid in methanol-Gradient: 5%-100% B in 3.0 min, 100% solvent B for 0.3 min. Concentration of compounds in 100% DMSO determined by ELS ranged from 1-6 mM.
(§3) Cells were plated in 96-well white flat-bottomed plates (Corning) at 2.0×10^3 cells per well in 100 μL culture medium. After incubation for 24 hours, test compounds were added at a range of concentrations as ten point serial dilution as duplicates or triplicates. Following further incubation for 6 days 37° C., 5% CO2, cell viability was assessed with the use of a CellTiter-Glo Luminescent Cell Viability Assay (Promega). Luminescence was measured using the GloMax instrument (Promega). […] For a subset of payloads, each treatment was independently repeated two to eight times, and IC50 values were averaged. […] Standard deviation (stdev) is shown as (N/A) for treatment performed once.
A general note: ATP-based viability assays read luminescence as a measure of living cells.

The nature of another data set: physchem. The conditions noted are these: 25 °C, pH 7.4, aqueous buffer, kinetic from dmso stock. The protocol:
In-vitro kinetic solubilities of the compounds in PBS pH 7.4 buffer at 25° C. were determined by diluting compounds from 100% dimethyl sulfoxide (DMSO) into PBS buffer and measuring absorbance at 490, 590 and 650 nm. Stock concentrations in 100% DMSO were provided at 1-6 mM in 100% DMSO. Kinetic solubilities were determined by diluting test compounds from 100% DMSO into PBS pH 7.4 buffer, as duplicate, 10 point 2-fold serial dilution starting at 100× dilution of stock DMS solution into PBS buffer in a clear, flat bottom polystyrene assay plates. Total assay volume was 200 microliters. Solutions were mixed by plate shaking, incubated for 30 m at 25° C., and absorbance was read at 490, 590 and 650 nm. […] in PBS buffer was used as a blank. For each test compound, average optical density (GD) at each concentration was determined by averaging the blank corrected sum of absorption at 490 nm, 590 nm and 650 nm, over duplicate measurements. Turbidity threshold optical density value was set as a sum of mean plus two standard deviations of the mean of absorbances at 490, 590 and 650 nm for 1% (v/v) DMSO in PBS pH 7.4 buffer. Highest soluble concentration (micromolar) corresponded to the highest concentration at which average optical density was below optical density value set for turbidity threshold (Table 4). Amiodarone and propranolol were used as low and high solubility controls respectively.

A further data set concerns NCI-N87. As to the kind of experiment: In vitro cytotoxicity assay (CellTiter-Glo), NCI-N87. Type of data set: cell-based, Human. As to conditions: Homo sapiens, NCI-N87, 144 h, read-out: Cytotoxicity IC50. Here is the method:
as §1, §2, §3

For the next data set, the system named is MCF7. As to the kind of experiment: In vitro cytotoxicity assay (CellTiter-Glo), MCF7. The format is cell-based, Human. The conditions noted are these: Homo sapiens, MCF7, 144 h, read-out: Cytotoxicity IC50. The protocol: as §1, §2, §3
The next data set has as its system FaDu. As to the kind of experiment: In vitro cytotoxicity assay (CellTiter-Glo), FaDu. Type of data set: cell-based, Human. As to conditions: Homo sapiens, FaDu, 144 h, read-out: Cytotoxicity IC50. The protocol: as §1, §2, §3
The test system of another data set is SKBR3. As to the kind of experiment: In vitro cytotoxicity assay (CellTiter-Glo), SKBR3. Type of data set: cell-based, Human. The conditions noted are these: Homo sapiens, SK-BR-3, 144 h, read-out: Cytotoxicity IC50. The protocol:
as §1, §2, §3

The subject of the next data set is HT29. As to the kind of experiment: In vitro cytotoxicity assay (CellTiter-Glo), HT29. The format is cell-based, Human. The conditions noted are these: Homo sapiens, HT-29, 144 h, read-out: Cytotoxicity IC50. Here is the method: as §1, §2, §3

In the case of `CC[C@@]1(O)C(=O)OCc2c1cc1n(c2=O)Cc2c-1nc1cc(F)c(C)c3c1c2[C@@H](NC(=O)[C@H]1C[C@H]1CO)CC3` (single isomer, unassigned) [Compound 111-B], the IC50 stood at 4.5 nM in the data set with NCI-H292; 5.2 nM with NCI-N87; 3.8 nM in the data set on MCF7; 1.1 nM in the data set on FaDu; 2.1 nM in the data set on SKBR3; 6.3 nM in the data set with HT29. In addition, the concentration in solution in “physchem” (solubility at 30 min) came to 30 µM (≈ 16 µg/mL).
With `CC[C@@]1(O)C(=O)OCc2c1cc1n(c2=O)Cc2c-1nc1cc(F)c(C)c3c1c2[C@@H](NC(=O)C1CC(O)C1)CC3` (stereo partly drawn) [Compound 58], the IC50 with NCI-H292 was 60.5 nM; in the data set on NCI-N87, 49.4 nM; in the data set on MCF7, 32 nM; in the data set on FaDu it was 6.3 nM; in the data set on SKBR3, 12.1 nM; with HT29 it was 177 nM.
On to `CC[C@@]1(O)C(=O)OCc2c1cc1n(c2=O)Cc2c-1nc1cc(F)c(C)c3c1c2[C@@H](NC(=O)C#CCO)CC3` [Compound 83], for which the IC50 came to 121 nM in the data set with NCI-H292; 159 nM in the data set on NCI-N87; 42.2 nM with MCF7; 16.5 nM with FaDu; 25.6 nM in the data set on SKBR3; 255 nM in the data set on HT29.
With `CC[C@@]1(O)C(=O)OCc2c1cc1n(c2=S)Cc2c-1nc1cc(F)c(C)c3c1c2[C@@H](NC(=O)CO)CC3` [Compound 106], the IC50 is 0.4 nM in the data set on NCI-H292; 0.9 nM with NCI-N87; 0.2 nM with MCF7; 0.4 nM in the data set with SKBR3; 1.1 nM in the data set on HT29.
On to `CC[C@@]1(O)C(=O)OCc2c1cc1n(c2=S)Cc2c-1nc1cc(F)c(C)c3c1c2[C@@H](N)CC3` [Compound 107], for which the IC50 came out at 0.6 nM with NCI-H292; 0.2 nM in the data set on NCI-N87; 0.2 nM with MCF7; 0.1 nM in the data set with FaDu; 0.1 nM in the data set on SKBR3; 0.4 nM in the data set with HT29. The solubility at 30 min in the data set “physchem” worked out at 15 µM (≈ 6.77 µg/mL).
Turning to `CC[C@@]1(O)C(=O)OCc2c1cc1n(c2=O)Cc2c-1nc1cc(F)c(C)c3c1c2[C@@H](N(C)CCO)CC3` [Compound 140], the IC50 in the data set on NCI-H292 stood at 3 nM; with NCI-N87 it was 1.5 nM; in the data set with MCF7 it was 0.2 nM; in the data set on FaDu it was 0.3 nM; in the data set on SKBR3, 0.8 nM; in the data set on HT29 it was 1.2 nM. Also, the solubility at 30 min in the data set “physchem” worked out at 10 µM (≈ 4.94 µg/mL).
With `CC[C@@]1(O)C(=O)OCc2c1cc1n(c2=O)Cc2c-1nc1cc(F)c(C)c3c1c2[C@@H](NCCOCCO)CC3` [Compound 147], the IC50 in the data set on NCI-H292 was determined as 9.4 nM; in the data set on NCI-N87 it was 8.5 nM; in the data set on MCF7, 3.1 nM; in the data set with FaDu, 3 nM; in the data set on SKBR3 it was 2.7 nM; in the data set on HT29, 7.1 nM. In the data set “physchem”, this molecule came in with a solubility at 30 min of 21 µM (≈ 11 µg/mL).
As for `CC[C@@]1(O)C(=O)OCc2c1cc1n(c2=O)Cc2c-1nc1cc(F)c(C)c3c1c2[C@@H](NC(=O)C1(O)COC1)CC3` [Compound 159], the IC50 was determined as 21.6 nM in the data set on NCI-H292; 22.4 nM with NCI-N87; 9.8 nM in the data set with MCF7; 2 nM in the data set with FaDu; 5.8 nM in the data set with SKBR3; 64.2 nM with HT29. The same molecule had a solubility at 30 min in “physchem” of 27 µM (≈ 14.5 µg/mL).
In the case of `CC[C@@]1(O)C(=O)OCc2c1cc1n(c2=O)Cc2c-1nc1cc(F)c(C)c3c1c2[C@@H](N(C=O)CCO)CC3` [Compound 163], the IC50 in the data set with NCI-H292 worked out at 22.3 nM; in the data set on NCI-N87, 29.4 nM; with MCF7 it was 10.9 nM; in the data set with FaDu, 7.8 nM; in the data set on SKBR3 it was 9.8 nM; in the data set on HT29, 65 nM. In addition, the concentration in solution in the data set “physchem” (solubility at 30 min) came to 24 µM (≈ 12.2 µg/mL).
For `CC[C@@]1(O)C(=O)OCc2c1cc1n(c2=O)Cc2c-1nc1cc(F)c(C)c3c1c2[C@@H](NCCNCCN)CC3` [Compound 164], the IC50 with NCI-H292 was 30.3 nM; in the data set on NCI-N87, 22.8 nM; with MCF7 it was 5.2 nM; in the data set on FaDu it was 8.8 nM; in the data set with SKBR3, 10.8 nM; in the data set with HT29, 32.7 nM. Besides, in the data set “physchem”, the solubility at 30 min is 10 µM (≈ 5.22 µg/mL).
Consider `CC[C@@]1(O)C(=O)OCc2c1cc1n(c2=O)Cc2c-1nc1cc(F)c(C)c3c1c2[C@@H](NC(=O)c1cc(O)[nH]n1)CC3` [Compound 166], for which the IC50 in the data set with NCI-H292 came to 322 nM; in the data set with NCI-N87 it was 410 nM; in the data set on MCF7, 162 nM; in the data set on FaDu, 93.8 nM; with SKBR3, 118 nM; in the data set on HT29 it was 663 nM. The same molecule displayed a solubility at 30 min in the data set “physchem” of 22 µM (≈ 12 µg/mL).
Regarding `CC[C@@]1(O)C(=O)OCc2c1cc1n(c2=O)Cc2c-1nc1cc(F)c(C)c3c1c2[C@@H](NC(=O)c1coc(CO)n1)CC3` [Compound 167], the IC50 in the data set with NCI-H292 was 23 nM; with NCI-N87 it was 34 nM; in the data set with MCF7, 8.9 nM; in the data set with FaDu, 3 nM; with SKBR3, 3.5 nM; in the data set with HT29, 43.5 nM.
`CC[C@@]1(O)C(=O)OCc2c1cc1n(c2=O)Cc2c-1nc1cc(F)c(C)c3c1c2[C@@H](NC(=O)c1cc(CO)[nH]n1)CC3` [Compound 168]: the concentration for half-maximal inhibition (IC50) amounted to 77.9 nM with NCI-H292; 103 nM with NCI-N87; 19.4 nM with MCF7; 9.9 nM with FaDu; 32.7 nM with SKBR3; 627 nM in the data set with HT29.
As for `CC[C@@]1(O)C(=O)OCc2c1cc1n(c2=S)Cc2c-1nc1cc(F)c(C)c3c1c2[C@@H](NC(=S)[C@H]1C[C@@H]1CO)CC3` [Compound 175-B], the IC50 was found to be 1.5 nM in the data set with NCI-H292; 1.5 nM in the data set with NCI-N87; 0.6 nM in the data set on MCF7; 0.3 nM with FaDu; 0.5 nM in the data set on SKBR3; 1.6 nM in the data set on HT29.
In the case of `CC[C@@]1(O)C(=O)OCc2c1cc1n(c2=O)Cc2c-1nc1cc(F)c(C)c3c1c2[C@@H](NC(=S)CO)CC3` [Compound 176], the IC50 was 4.5 nM with NCI-H292; 2.1 nM in the data set with NCI-N87; 7.8 nM in the data set on MCF7; 0.9 nM in the data set on FaDu; 0.7 nM with SKBR3; 4.3 nM in the data set on HT29.
Take `CC[C@@]1(O)C(=O)OCc2c1cc1n(c2=O)Cc2c-1nc1cc(F)c(C)c3c1c2[C@@H](NC(=O)CCC1OCCO1)CC3` [Compound 188]: the half-inhibitory concentration (IC50) was 6.6 nM in the data set on NCI-H292; 9 nM with NCI-N87; 4.9 nM with MCF7; 1.5 nM with FaDu; 3.4 nM in the data set on SKBR3; 13 nM with HT29. In “physchem”, the concentration in solution (solubility at 30 min) was 6 µM (≈ 3.38 µg/mL).
Turning to `CC(C)NCC(O)COc1cccc2ccccc12` (stereo not drawn) [Propranolol, propranolol, reference compound], the solubility at 30 min in “physchem” amounted to 100 µM (≈ 25.9 µg/mL).

For orientation: IC50 means the point on the concentration scale where inhibition reaches its midpoint. As usually defined, the solubility is the dissolved amount per volume that the medium holds. Lower therefore signals little dissolved substance.
